From patent US20120190620A1, “METHODS TO IDENTIFY TARGETS AND MOLECULES REGULATING PURINOSOMES AND THEIR USES” (priority 2010, published 2012)

Legend:
Assay type in all cases: cell-based, human
[1] = test system: HeLa cells; assay: Purinosome dynamics DMR screen, sequential order molecule, DMAT, TBB; settings: for modulation of the DMAT signal / modulation of the TBB signal: adrenergic receptor ligand library, order ligand, TBB, FIG. 5, DMAT
Source text: A library of agonists for various different GPCRs were used to individually pretreat a confluent layer of Hela cells for about one hour, before sequential stimulation with DMAT and TBB, respectively. The responses were monitored using Epic® system.
A library of molecules targeting endogenous alpha2A and beta2 adrenergic receptors were used to individually pretreat a confluent layer of Hela cells for about one hour, before sequential stimulation with DMAT and TBB, respectively. The responses were monitored using Epic® system.
(§1) Epic® wavelength interrogation system (Corning Inc., Corning, N.Y.) was used for whole cell sensing. This system consists of a temperature-control unit, an optical detection unit, and an on-board liquid handling unit with robotics. The detection unit is centered on integrated fiber optics, and enables kinetic measures of cellular responses with a time interval of ˜15 sec. The compound solutions were introduced by using the on-board liquid handling unit (i.e., pippetting).
(§2) For biosensor cellular assays, compound solutions were made by diluting the stored concentrated solutions with the HBSS (1× Hanks balanced salt solution, plus 20 mM Hepes, pH 7.1), and transferred into a 384 well polypropylene compound storage plate to prepare a compound source plate. Two compound source plates were made separately when a two-step assay was performed. In parallel, the cells were washed twice with the HBSS and maintained in 30 μl of the HBSS to prepare a cell assay plate. Both the cell assay plate and the compound source plate(s) were then incubated in the hotel of the reader system. After incubation the baseline wavelengths of all biosensors in the cell assay microplate were recorded and normalized to zero. Afterwards, a 2 to 10 min continuous recording was carried out to establish a baseline, and to ensure that the cells reached a steady state. Cellular responses were then triggered by transferring 10 μl of the compound solutions into the cell assay plate using the on-board liquid handler.
(§3) All studies were carried out at a controlled temperature (28° C.). At least two independent sets of experiments, each with at least three replicates, were performed.
(§4) The upstream signaling pathways linking to the purinosome is unknown at the present time. To identify cellular targets and pathways that are involved in regulating purinosome dynamics, a library of agonists for a great number of G protein-coupled receptors and membrane bound receptor tyrosine kinases was made in house, and each agonist was used to stimulate a confluent layer of Hela cells, cultured using high initial seeding number (25k per well for 384 well Epic® cell culture compatible biosensor microplates) in purine rich medium (i.e., regular 10% FCS or FBS). The concentrations for all small organic molecules were 10 micromolar, whereas 1 micromolar for all small peptides, and 100 nanomolar for all protein factors (molecular weight >15k Da). The cellular responses to each agonist were recorded for about 1 hour, and used to determine the functional expression of their corresponding cognate receptor(s).
To examine the receptor whose signaling is involved in regulating the purinosome dynamics, Hela cells were pretreated individually with each agonist for about one hour, followed by sequential stimulation with DMAT (20 micromolar) and TBB (25 micromolar), each step about 1 hour.

[2] = test system: HeLa cells; assay: Purinosome dynamics DMR screen, sequential order molecule, TBB, DMAT; settings: agonist library; order agonist, TBB, DMAT; FIG. 4
Source text: A library of agonists for various different GPCRs were used to individually pretreat a confluent layer of Hela cells for about one hour, before sequential stimulation with TBB and DMAT, respectively. The responses were monitored using Epic® system.
(A) The dose-dependent DMR signals of Hela cells induced by alpha2A agonist clonidine. (B) The TBB DMR signal of Hela cells after pretreated with clonidine at different doses. (C) The dose-dependent DMR signals of pertussis toxin (PTX)-pretreated Hela cells induced by alpha2A agonist clonidine. (D) The TBB DMR signal of the PTX-pretreated Hela cells after stimulated with clonidine at different doses. The TBB concentration was 20 μM in both (C) and (D). The clonidine pretreatment occurred about one-hour before the TBB stimulation.
as §1, §2, §3, §4

[3] = test system: HeLa cells; assay: Epic label-free biosensor DMR assay of compound-induced signals in HeLa cells; settings: for effect of pretreatment on the sequential DMAT response / effect of pretreatment on the sequential TBB response: HeLa cells pretreated with the compound about 1 hr; for effect of pretreatment on the sequential DMAT response: then DMAT; for effect of pretreatment on the sequential TBB response: then TBB; for DMR signal induced by CK2 inhibitor: HeLa cells, regular serum medium, high initial seeding number
Source text: HeLa cells were obtained from American Type Cell Culture (Manassas, Va.). This cervical cancer cell line was maintained in regular serum medium (i.e., minimum essential medium (MEM) (Invitrogen) supplemented with 10% fetal bovine serum (FBS) and 1% Penicillin/streptomycin). To investigate the effects of purine depletion on the purinosome formation and dissociation, HeLa cells were maintained for at least two passages in “purine-depleted medium” prior cell assays. The purine depleted medium is a medium consisting of Roswell Park Memorial Institute 1640 (RPMI 1640) supplemented with dialyzed 5% FBS […]. FBS was dialyzed against 0.9% NaCl at 4° C. for ˜2 days using a 25 kDa MWCO dialysis membrane to remove purines. This process completely removes the purines normally present in FBS.
Cells were typically grown using ˜1 to 2×10^4 cells per well at passage 3 to 15 suspended in 50 μl of the corresponding culture medium in the biosensor microplate, and were cultured at 37° C. under air/5% CO2 for ˜1 day. The confluency for all cells at the time of assays was ˜100%.
as §1
The RWG biosensor is capable of detecting minute changes in local index of refraction near the sensor surface. Since the local index of refraction within a cell is a function of density and its distribution of biomass (e.g., proteins, molecular complexes), the biosensor exploits its evanescent wave to non-invasively detect ligand-induced dynamic mass redistribution in native cells. The evanescent wave extends into the cells and exponentially decays over distance, leading to a characteristic sensing volume of ˜150 nm, implying that any optical response mediated through the receptor activation only represents an average over the portion of the cell that the evanescent wave is sampling. The aggregation of many cellular events downstream the receptor activation determines the kinetics and amplitudes of a ligand-induced DMR.
as §2, §3

[4] = GPCR/RTK agonist library, pretreated about one hour, order agonist, DMAT (20 micromolar), TBB (25 micromolar), FIG. 3

Row | Compound | modulation of the DMAT signal [1] | modulation of the TBB signal [1] | also measured
1 | CS(=O)(=O)Nc1c(O)ccc2c1CCCC2C1=NCCN1 (stereo not drawn) [A61603] | suppress | potentiate | modulation of the DMAT DMR signal [1, 4]: suppress; modulation of the TBB DMR signal [1, 4]: potentiate; modulation of the TBB DMR signal [2]: selectively potentiate
2 | N=C(CC(O)COc1ccccc1-c1ccccc1)N1CCCCC1 (stereo not drawn) [AH11110A] | potentiate | suppress | –
3 | Nc1ncnc2c1ncn2[C@@H]1O[C@H](COP(=O)(O)OP(=O)(O)OP(=O)(O)O)[C@@H](O)[C@H]1O [ATP] | – | – | modulation of the DMAT DMR signal [1, 4]: selectively suppress; modulation of the TBB DMR signal [2]: selectively potentiate
4 | OC[C@H]1O[C@@H](n2cnc3cc(Cl)c(Cl)cc32)[C@H](O)[C@@H]1O [DRB, 5,6-Dichlorobenzimidazole 1-β-D-ribofuranoside] | – | – | effect of pretreatment on the sequential DMAT response [3]: desensitized; effect of pretreatment on the sequential TBB response [3]: slightly potentiated; DMR signal induced by CK2 inhibitor [3]: DMR signals similar to the DMAT response
5 | O=C(O)c1cc([N+](=O)[O-])ccc1NCCCc1ccccc1 [NPPB] | – | – | modulation of the DMAT DMR signal [1, 4]: potentiate; modulation of the TBB DMR signal [1, 4]: no or little impact
6 | CCCCC[C@H](O)/C=C/[C@H]1C(=O)C[C@H](O)[C@@H]1C/C=C\CCCC(=O)O [PGD2, prostaglandin D2] | – | – | modulation of the DMAT DMR signal [1, 4]: potentiate; modulation of the TBB DMR signal [1, 4]: no or little impact; modulation of the TBB DMR signal [2]: selectively suppress
7 | CCCCC[C@H](O)/C=C/[C@H]1[C@H](O)CC(=O)[C@@H]1C/C=C\CCCC(=O)O [PGE2, peostaglandin E2] | – | – | modulation of the DMAT DMR signal [1, 4]: potentiate; modulation of the TBB DMR signal [1, 4]: no or little impact; modulation of the TBB DMR signal [2]: selectively suppress
8 | CC(C)(Cc1c[nH]c2ccc(Cl)cc12)NCCOc1ccccc1OCC1CC1 [RS17053] | potentiate | suppress | –
9 | C[C@H](N)Cn1ccc2cc(F)c(Cl)cc21 [Ro600175] | – | – | modulation of the DMAT DMR signal [1]: potentiate; modulation of the TBB DMR signal [1]: no or little impact; modulation of the DMAT DMR signal [2]: selectively potentiate
10 | CCCCCCCCCCCCC/C=C/[C@@H](O)[C@@H](N)COP(=O)(O)O [S1P, Sphingosine-1-phosphate] | – | – | modulation of the DMAT DMR signal [1, 4]: selectively suppress; modulation of the TBB DMR signal [2]: selectively potentiate
11 | Brc1c(Br)c(Br)c2[nH]cnc2c1Br [TBBz, 4,5,6,7-tetrabromobenzimidazole] | – | – | type of CK2 inhibitor by label-free biosensor cellular assay [3]: purinosome disruption agent
12 | O=C(O)/C=C/c1cc(Br)c(Br)c(Br)c1Br [TBCA, Tetrabromocinnamic Acid] | – | – | type of CK2 inhibitor by label-free biosensor cellular assay [3]: purinosome promoting agent; effect of pretreatment on the sequential DMAT response [3]: desensitized; effect of pretreatment on the sequential TBB response [3]: slightly potentiated; DMR signal induced by CK2 inhibitor [3]: DMR signals similar to the DMAT response
13 | O=c1ccn([C@@H]2O[C@H](COP(=O)(O)OP(=O)(O)O)[C@@H](O)[C@H]2O)c(=O)[nH]1 [UDP] | – | – | modulation of the DMAT DMR signal [1, 4]: selectively suppress; modulation of the TBB DMR signal [2]: selectively potentiate
14 | Brc1c(NC2=NCCN2)ccc2nccnc12 [UK14304] | suppress | potentiate | –
15 | Clc1ccc2c(c1)C(N1CCNCC1)=Nc1ccccc1O2 [amoxapine] | potentiate | suppress | –
16 | O=c1cc(-c2ccc(O)cc2)oc2cc(O)cc(O)c12 [apigenin] | – | – | DMR signal induced by CK2 inhibitor [3]: DMR signals similar to the DMAT response
17 | c1ccc2c(c1)[I+]c1ccccc1-2 [diphylpheneiodonium] | potentiate | suppress | –

Row | Compound | modulation of the DMAT signal [1] | modulation of the TBB signal [1] | also measured
18 | CC(CCc1ccc(O)cc1)NCCc1ccc(O)c(O)c1 (stereo not drawn) [dobutamine] | specifically suppress | – | –
19 | NCCc1ccc(O)c(O)c1 [dopamine] | suppress | potentiate | modulation of the DMAT DMR signal [1, 4]: suppress; modulation of the TBB DMR signal [1, 4]: potentiate; modulation of the TBB DMR signal [2]: selectively potentiate
20 | N=C(N)N/N=C/c1c(Cl)cccc1Cl [guanabenz] | suppress | potentiate | –
21 | N=C(N)NC(=O)Cc1c(Cl)cccc1Cl [gufacine] | suppress | potentiate | –
22 | CC(C(O)c1ccc(O)cc1)N1CCC(Cc2ccccc2)CC1 (stereo not drawn) [ifenprodil] | potentiate | suppress | –
23 | CCC(NC(C)C)C(O)c1ccc(O)c(O)c1 (stereo not drawn) [isoetharine] | specifically suppress | – | –
24 | CC(C)NCC(O)c1ccc(O)c(O)c1 (stereo not drawn) [isoproterenol] | specifically suppress | – | –
25 | CNCCCC12CCC(c3ccccc31)c1ccccc12 [maprotiline] | potentiate | suppress | –
26 | CC(N)C(O)c1ccc(O)c(O)c1 (stereo not drawn) [methylnorephrine] | suppress | potentiate | –
27 | c1ccc2c(CC3=NCCN3)cccc2c1 [naphazoline] | suppress | potentiate | –
28 | NC[C@H](O)c1ccc(O)c(O)c1 [norepinephrine] | suppress | potentiate | –
29 | C1COC(NC(C2CC2)C2CC2)=N1 [rilmenidine] | suppress | potentiate | –
30 | Clc1ccc2nsnc2c1NC1=NCCN1 [tizanidine] | suppress | potentiate | –
31 | Cc1cccc(C)c1N=C1NCCCS1 [xylazine] | suppress | potentiate | –
32 | EGF: epidermal growth factor, the EGFR agonist (NSDSECPLSHDGYCLHDGVCMYIEALDKYACNCVVGYIGERCQYRDLKWWELR; not fully specified; Epidermal growth factor; UniProt P01133 971-1023, looked up) | – | – | modulation of the DMAT DMR signal [2]: selectively suppress
33 | HGF: hepatocyte growth factor, the HGFR agonist | – | – | modulation of the TBB DMR signal [2]: selectively potentiate
34 | IGF1: insulin-like growth factor 1, the IGF1R agonist | – | – | modulation of the TBB DMR signal [2]: selectively potentiate
